Measurements from patent US20110070258A1, “METHOD OF SLOWING THE AGING PROCESS BY ACTIVATING SIRTUIN ENZYMES” (Polifenoles Naturales, S.L., priority 2009, published 2011).

Tests used:
[1] = tested on: Sirt1; test: Sirt1 expression by Western Blot in differentiated 3T3-L1 adipocytes; type: cell-based, mouse
Protocol: The effect of fucoxanthin/punicic acid mixtures on Sirt1 expression in murine cells was studied. Mouse 3T3-L1 pre-adipocytes purchased from the American Type Culture Collection (Rockville, Md.) were grown in Dubecco's modified Eagle's medium (DMEM) (Gibco BRL, Grand Island, N.Y.) supplemented with 2 mM glutamine (GIBCO BRL), 1% penicillin/streptomycin (10000 units of penicillin/mL and 10 mg streptomycin/mL) and 10% fetal bovine serum at 37° C. under a humidified 5% CO2 atmosphere. For differentiation of 3T3-L1 pre-adipocytes, cells were seeded into 6-well culture plates (2×10^4/mL) and cultured as described above. […] The fucoxanthin extract used in this study of Sirt1 expression in murine cells was an extract of the complete plant of Undaria […]. The extract contains 0.8% by weight fucoxanthin and 30% by weight marine vegetable oil. The fucoxanthin extract used may further contain ≦10.0 wt. % palm oil. The pomegranate seed oil used in this study contains 70 wt. % punicic acid, and is an extract of the seeds of the Punica granatum plant. […], the fucoxanthin/punicic acid mixture used in this study, contains 50 wt. % of the fucoxanthin extract, and 50 wt. % of the pomegranate seed oil. […] The total proteins are measured by Bio-Rad Protein Assay (Bio-Rad Laboratories, Munich, Germany). […]

[2] = Energy expenditure by indirect calorimetry in obese subjects (dose-response clinical trial); type: in vivo, human; conditions: for Energy Expenditure, Baseline: n = 4; for Energy Expenditure, Baseline / Energy Expenditure, 2 weeks / Energy Expenditure, 5 weeks / Energy Expenditure, 10 weeks / Energy Expenditure, 16 weeks / Total Energy Expenditure, to (16 weeks) / Total Energy Expenditure, From (baseline) / Change in Total Energy Expenditure, Net: NAFLD; for Change in Total Energy Expenditure, Net: baseline to 16 weeks
Protocol: Energy expenditure rate (EER) was measured in patients by indirect calorimetry. Oxygen was measured with an electrochemical oxygen sensor, and carbon dioxide was measured with an infrared carbon dioxide sensor (Ametec Carbon Dioxide Analyzer). Before each measurement, the instrument was calibrated with a mixture of O2 and CO2 gases. Rates of oxygen consumption (O2) and carbon dioxide production (CO2) were calculated and printed out at 1-min intervals. Energy expenditure was derived from O2 and CO2 values.
Obese subjects diagnosed with NAFLD and with apparently healthy liver (HL) were matched in pairs based on age, body weight and body fat mass and were randomly divided into Experimental NAFLD group (n=36), Placebo NAFLD (n=36), Experimental HL (n=19) and Placebo-HL group (n=19). Subjects were randomly assigned, in equal numbers, to the phytomedicine experimental groups and the Placebo control group, using the Simple Randomization Procedure. Their daily dietary intake was restricted to 1800±100 kcals, of which 50±5% was in the form of carbohydrates, 30±5% from protein, and 20±5% from fat. Subjects were also instructed to consume all the foods and beverages designated by dieticians and provided by the Institute, and to eat no other food or high calories beverages. […] During the clinical phase, subjects were required to visit a designated hospital three times a week for physiological and biochemical analysis. Institute provided all foods and beverages by designated dieticians and labeled as B, L, and D for breakfast, lunch and dinner, respectively.
The brown marine vegetable extract was suspended in 100 mg cold-pressed pomegranate seed oil. The pomegranate seed oil was standardized to contain a minimum of 70% punicic acid, for a total weight of 200 mg/capsule. The content of fucoxanthin in Experimental Sample (Xanthigen) was analyzed using high performance liquid chromatography method, and the fatty acids were analyzed by Gas Chromatography method. The HPLC profile of the brown marine vegetable extract is shown in FIG. 2A, along with an HPLC chromatogram of pure fucoxanthin for comparison in FIG. 2B.
Energy expenditure (EE) and substrate oxidations were measured by indirect calorimetry as described previously (Ranneries et al., 1998). Oxygen was measured with an electrochemical oxygen sensor, and carbon dioxide was measured by an infrared carbon dioxide sensor (Ametec Carbon Dioxide Analyzer). Calculations of EE and substrate oxidation rates were performed as previously described (Astrup et al., 1991). Protein oxidation was assumed to be constant and amounting to 15% of EE. […] The reliability was assessed by the coefficient of variation on resting energy expenditure repeated every week.

## CCCC\C=C/C=C/C=C\CCCCCCCC(=O)O [punicic acid, 9-cis, 11-trans conjugated linolenic acid (9c,11t,13c-CLNA)]
[1]
  Effect on Sirt1 protein levels / expression: suppresses Sirt1 expression

## CC(=O)O[C@H]1CC(C)(C)C(=C=C/C(C)=C/C=C/C(C)=C/C=C/C=C(C)/C=C/C=C(\C)C(=O)C[C@@]23O[C@]2(C)C[C@@H](O)CC3(C)C)[C@](C)(O)C1 [Fucoxanthin, fucoxanthin]
[2]; 25 mg fucoxanthin alone
  increase in daily energy expenditure rate: 1152 ± 290 kJ/day
[2]; Fucoxanthin 10 mg per day
  Energy Expenditure, Baseline: 5.82 ± 0.18 kJ/min
  Energy Expenditure, 2 weeks: 5.69 ± 0.21 kJ/min
  Energy Expenditure, 5 weeks: 5.93 ± 0.15 kJ/min
  Energy Expenditure, 10 weeks: 5.69 ± 0.21 kJ/min
  Energy Expenditure, 16 weeks: 5.98 ± 0.18 kJ/min
  Total Energy Expenditure, to (16 weeks): 8611 kJ/24 h
  Total Energy Expenditure, From (baseline): 8381 kJ/24 h
[2]; Fucoxanthin 10 mg per day, NS vs placebo
  Change in Total Energy Expenditure, Net: Net 230 ± 147 kJ/24 h
[2]; Fucoxanthin 15 mg per day
  Energy Expenditure, Baseline: 5.85 ± 0.27 kJ/min
  Energy Expenditure, 2 weeks: 5.89 ± 0.14 kJ/min
  Energy Expenditure, 5 weeks: 5.98 ± 0.17 kJ/min
  Energy Expenditure, 10 weeks: 6.11 ± 0.21 kJ/min
  Energy Expenditure, 16 weeks: 6.39 ± 0.17 kJ/min
  Total Energy Expenditure, to (16 weeks): 9202 kJ/24 h
  Total Energy Expenditure, From (baseline): 8424 kJ/24 h
[2]; Fucoxanthin 15 mg per day, p < 0.05 vs placebo
  Change in Total Energy Expenditure, Net: Net 778 ± 260 kJ/24 h
[2]; Fucoxanthin 25 mg per day
  Energy Expenditure, Baseline: 5.92 ± 0.16 kJ/min
  Energy Expenditure, 2 weeks: 6.02 ± 0.23 kJ/min
  Energy Expenditure, 5 weeks: 5.92 ± 0.27 kJ/min
  Energy Expenditure, 10 weeks: 6.29 ± 0.31 kJ/min
  Energy Expenditure, 16 weeks: 6.72 ± 0.22 kJ/min
  Total Energy Expenditure, to (16 weeks): 9677 kJ/24 h
  Total Energy Expenditure, From (baseline): 8525 kJ/24 h
[2]; Fucoxanthin 25 mg per day, p < 0.05 vs placebo
  Change in Total Energy Expenditure, Net: Net 1152 ± 290 kJ/24 h
[2]; Fucoxanthin 50 mg per day
  Energy Expenditure, Baseline: 6.04 ± 0.24 kJ/min
  Energy Expenditure, 2 weeks: 5.91 ± 0.31 kJ/min
  Energy Expenditure, 5 weeks: 6.32 ± 0.22 kJ/min
  Energy Expenditure, 10 weeks: 6.92 ± 0.31 kJ/min
  Energy Expenditure, 16 weeks: 7.37 ± 0.35 kJ/min
  Total Energy Expenditure, to (16 weeks): 10613 kJ/24 h
  Total Energy Expenditure, From (baseline): 8698 kJ/24 h
[2]; Fucoxanthin 50 mg per day, p < 0.001 vs placebo
  Change in Total Energy Expenditure, Net: Net 1915 ± 246 kJ/24 h
[2]; fucoxanthin dose of 1.6 mg per se
  EER: not effective per se
[2]; obese subjects, stand alone
  minimum effective dose (increase of EER), stand alone: 2.4 mg
